# According to ChEMBL document CHEMBL1212782, “Mutasynthesis of lincomycin derivatives with activity against drug-resistant staphylococci” (2010):
# Legend:
# [1] = tested on: Staphylococcus haemolyticus; assay: Antimicrobial activity against erythromycin, inducible lincomycin, inducible clindamycin resistant Staphylococcus haemolyticus isolate 31UL harboring ermC gene incubated at 37 degC for 24 hrs by agar dilution method
# Staphylococcus aureus [2] = assay: Antimicrobial activity against Staphylococcus aureus ATCC 29213 incubated at 37 degC for 24 hrs by agar dilution method; conditions: ATCC 29213, 24 h
# [3] = tested on: Staphylococcus epidermidis; assay: Antimicrobial activity against erythromycin, inducible lincomycin, inducible clindamycin resistant Staphylococcus epidermidis isolate 32PL harboring ermC gene incubated at 37 degC for 24 hrs by agar dilution method
# [4] = tested on: Staphylococcus epidermidis; assay: Antimicrobial activity against erythromycin, lincomycin, clindamycin resistant Staphylococcus epidermidis isolate 1036UL harboring ermC vgaALC gene incubated at 37 degC for 24 hrs by agar dilution method
# Staphylococcus aureus [5] = assay: Antimicrobial activity against Staphylococcus aureus isolate CIP 107907 harboring vgaA gene incubated at 37 degC for 24 hrs by agar dilution method; conditions: isolate CIP 107907, 24 h
# [6] = tested on: Staphylococcus haemolyticus; assay: Antimicrobial activity against erythromycin resistant Staphylococcus haemolyticus isolate 202BB harboring msrA gene incubated at 37 degC for 24 hrs by agar dilution method
# [7] = tested on: Staphylococcus epidermidis; assay: Antimicrobial activity against erythromycin, lincomycin, clindamycin resistant Staphylococcus epidermidis isolate 32OL harboring msrA lnuA vgaALC gene incubated at 37 degC for 24 hrs by agar dilution method
# [8] = tested on: Staphylococcus epidermidis; assay: Antimicrobial activity against lincomycin resistant Staphylococcus epidermidis isolate 102OL harboring lnuA gene incubated at 37 degC for 24 hrs by agar dilution method
# [9] = tested on: Staphylococcus haemolyticus; assay: Antimicrobial activity against lincomycin resistant Staphylococcus haemolyticus isolate 123PL harboring lnuA gene incubated at 37 degC for 24 hrs by agar dilution method
# [10] = tested on: Staphylococcus haemolyticus; assay: Antimicrobial activity against lincomycin, clindamycin resistant Staphylococcus haemolyticus isolate 29OL harboring vgaALC gene incubated at 37 degC for 24 hrs by agar dilution method
# [11] = tested on: Staphylococcus epidermidis; assay: Antimicrobial activity against erythromycin, lincomycin, clindamycin resistant Staphylococcus epidermidis isolate 44KR harboring ermC gene incubated at 37 degC for 24 hrs by agar dilution method
# [12] = tested on: Staphylococcus epidermidis; assay: Antimicrobial activity against erythromycin resistant Staphylococcus epidermidis isolate 129OV harboring msrA gene incubated at 37 degC for 24 hrs by agar dilution method
# [13] = tested on: Staphylococcus haemolyticus; assay: Antimicrobial activity against erythromycin, lincomycin, clindamycin resistant Staphylococcus haemolyticus isolate 65OL harboring ermC vgaALC gene incubated at 37 degC for 24 hrs by agar dilution method
# [14] = tested on: Staphylococcus haemolyticus; assay: Antimicrobial activity against erythromycin, lincomycin, clindamycin resistant Staphylococcus haemolyticus isolate 134PL harboring ermC gene incubated at 37 degC for 24 hrs by agar dilution method
# [15] = tested on: Staphylococcus haemolyticus; assay: Antimicrobial activity against erythromycin, lincomycin resistant Staphylococcus haemolyticus isolate 113OL harboring msrA lnuA gene incubated at 37 degC for 24 hrs by agar dilution method
SMILES,MIC [1],MIC (Staphylococcus aureus [2]),MIC [3],MIC [4],MIC (Staphylococcus aureus [5]),MIC [6],MIC [7],MIC [8],MIC [9],MIC [10],MIC [11],MIC [12],MIC [13],MIC [14],MIC [15]
CCC[C@@H]1C[C@@H](C(=O)N[C@@H]([C@H]2O[C@H](SC)[C@H](O)[C@@H](O)[C@H]2O)[C@H](C)Cl)N(C)C1 [CLINDAMYCIN],0.5 µg/mL,0.125 µg/mL,0.125 µg/mL,> 16 µg/mL,0.25 µg/mL,0.125 µg/mL,16 µg/mL,1 µg/mL,2 µg/mL,16 µg/mL,> 16 µg/mL,0.25 µg/mL,4 µg/mL,> 16 µg/mL,1 µg/mL
CCCCC[C@@H]1C[C@@H](C(=O)N[C@@H]([C@H]2O[C@H](SC)[C@H](O)[C@@H](O)[C@H]2O)[C@@H](C)O)N(C)C1,0.5 µg/mL,0.25 µg/mL,0.25 µg/mL,64 µg/mL,0.5 µg/mL,0.25 µg/mL,64 µg/mL,2 µg/mL,8 µg/mL,32 µg/mL,64 µg/mL,0.25 µg/mL,128 µg/mL,32 µg/mL,8 µg/mL
CCC[C@@H]1C[C@@H](C(=O)N[C@@H]([C@H]2O[C@H](SC)[C@H](O)[C@@H](O)[C@H]2O)[C@@H](C)O)N(C)C1 [LINCOMYCIN],1 µg/mL,1 µg/mL,1 µg/mL,> 256 µg/mL,4 µg/mL,1 µg/mL,> 256 µg/mL,64 µg/mL,128 µg/mL,64 µg/mL,64 µg/mL,1 µg/mL,128 µg/mL,32 µg/mL,128 µg/mL
